Values joined by “and” are separate entries in the source; they are usually repeats but may differ in a detail not shown here. Equal values may be shown once. Toxic doses and inconclusive results are not listed.
Test system: CD2F1 mice, L1210 leukemia ip, survival T/C
Assay: NCI In Vivo Anticancer Drug Screen. Data for tumor model L1210 Leukemia (intraperitoneal) in CD2F1 (CDF1) mice
Details: higher = longer survival
How it was run: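 Transplantable tumor in mice; compound-treated vs vehicle-treated groups. Read-out = treated/control ratio of the measured endpoint.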

[1] = endpoint: mean survival time, dose: 12.5 mg/kg/injection, schedule: Q01DX009 (ip), vehicle: saline with Tween-80
[2] = endpoint: mean survival time, dose: 25.0 mg/kg/injection, schedule: Q01DX009 (ip), vehicle: saline with Tween-80
[3] = endpoint: mean survival time, dose: 100.0 mg/kg/injection, schedule: Q04DX002 (ip), vehicle: saline with Tween-80
[4] = endpoint: mean survival time, dose: 200.0 mg/kg/injection, schedule: Q04DX002 (ip), vehicle: saline with Tween-80

## COC1(OC)C(Cl)=C(Cl)C(Cl)=C1Cl
endpoint: mean survival time, dose: 6.25 mg/kg/injection, schedule: Q01DX009 (ip), vehicle: saline with Tween-80
  T/C: 96 % of control
[1]
  T/C: 98 % of control
endpoint: mean survival time, dose: 12.5 mg/kg/injection, schedule: Q04DX003 (ip), vehicle: saline with Tween-80
  T/C: 111 % of control
[2]
  T/C: 96 % of control
endpoint: mean survival time, dose: 25.0 mg/kg/injection, schedule: Q04DX003 (ip), vehicle: saline with Tween-80
  T/C: 111 % of control

## CNc1nc(-c2ccncc2)nc(N(C)C)n1
[3]
  T/C: 96 % of control
[4]
  T/C: 88 % of control

## OC(C1CO1)C(O)C1CO1 (centres undefined)
endpoint: mean survival time, dose: 0.13 mg/kg/injection, schedule: Q03HX008 (ip), vehicle: saline
  T/C: 101 % of control
endpoint: mean survival time, dose: 0.25 mg/kg/injection, schedule: Q03HX008 (ip), vehicle: saline
  T/C: 105 % of control
endpoint: mean survival time, dose: 0.25 mg/kg/injection, schedule: Q03HX016 (ip), vehicle: saline
  T/C: 104 % of control
endpoint: mean survival time, dose: 0.25 mg/kg/injection, schedule: Q03HX024 (ip), vehicle: saline
  T/C: 104 % of control
endpoint: mean survival time, dose: 0.5 mg/kg/injection, schedule: Q01DX009 (ip), vehicle: saline
  T/C: 117 % of control and 119 % of control and 121 % of control
endpoint: mean survival time, dose: 0.5 mg/kg/injection, schedule: Q01DX009 (sc), vehicle: saline
  T/C: 104 % of control
endpoint: mean survival time, dose: 0.5 mg/kg/injection, schedule: Q03HX008 (ip), vehicle: saline
  T/C: 112 % of control
endpoint: mean survival time, dose: 0.5 mg/kg/injection, schedule: Q03HX016 (ip), vehicle: saline
  T/C: 115 % of control
endpoint: mean survival time, dose: 1.0 mg/kg/injection, schedule: Q01DX001 (ip), vehicle: saline
  T/C: 98 % of control and 108 % of control
endpoint: mean survival time, dose: 1.0 mg/kg/injection, schedule: Q01DX001 (sc), vehicle: saline
  T/C: 106 % of control
endpoint: mean survival time, dose: 1.0 mg/kg/injection, schedule: Q01DX009 (sc), vehicle: saline
  T/C: 114 % of control
endpoint: mean survival time, dose: 1.0 mg/kg/injection, schedule: Q03HX024 (ip), vehicle: saline
  T/C: 177 % of control
endpoint: mean survival time, dose: 1.0 mg/kg/injection, schedule: Q04DX003 (ip), vehicle: saline
  T/C: 107 % of control
endpoint: mean survival time, dose: 1.4 mg/kg/injection, schedule: Q04DX003 (ip), vehicle: saline
  T/C: 96 % of control
endpoint: mean survival time, dose: 2.0 mg/kg/injection, schedule: Q01DX001 (ip), vehicle: saline
  T/C: 116 % of control and 111 % of control
endpoint: mean survival time, dose: 2.0 mg/kg/injection, schedule: Q01DX001 (sc), vehicle: saline
  T/C: 111 % of control
endpoint: mean survival time, dose: 2.0 mg/kg/injection, schedule: Q03HX008 (ip), vehicle: saline
  T/C: 171 % of control
endpoint: mean survival time, dose: 2.0 mg/kg/injection, schedule: Q03HX016 (ip), vehicle: saline
  T/C: 201 % of control
endpoint: mean survival time, dose: 2.0 mg/kg/injection, schedule: Q03HX024 (ip), vehicle: saline
  T/C: 109 % of control
endpoint: mean survival time, dose: 2.0 mg/kg/injection, schedule: Q04DX003 (ip), vehicle: saline
  T/C: 123 % of control and 104 % of control and 112 % of control
endpoint: mean survival time, dose: 2.0 mg/kg/injection, schedule: Q08DX002 (ip), vehicle: saline
  T/C: 118 % of control
endpoint: mean survival time, dose: 3.0 mg/kg/injection, schedule: Q01DX009 (ip), vehicle: saline
  T/C: 192 % of control
endpoint: mean survival time, dose: 3.0 mg/kg/injection, schedule: Q04DX003 (ip), vehicle: saline
  T/C: 119 % of control
endpoint: mean survival time, dose: 4.0 mg/kg/injection, schedule: Q01DX001 (ip), vehicle: saline
  T/C: 115 % of control and 121 % of control
endpoint: mean survival time, dose: 4.0 mg/kg/injection, schedule: Q01DX001 (sc), vehicle: saline
  T/C: 112 % of control
endpoint: mean survival time, dose: 4.0 mg/kg/injection, schedule: Q01DX009 (ip), vehicle: saline
  T/C: 204 % of control and 247 % of control
endpoint: mean survival time, dose: 4.0 mg/kg/injection, schedule: Q01DX009 (sc), vehicle: saline
  T/C: 163 % of control
endpoint: mean survival time, dose: 4.6 mg/kg/injection, schedule: Q01DX009 (ip), vehicle: saline
  T/C: 182 % of control
endpoint: mean survival time, dose: 4.6 mg/kg/injection, schedule: Q04DX003 (ip), vehicle: saline
  T/C: 162 % of control
endpoint: mean survival time, dose: 5.0 mg/kg/injection, schedule: Q01DX001 (ip), vehicle: saline
  T/C: 123 % of control
endpoint: mean survival time, dose: 6.7 mg/kg/injection, schedule: Q04DX003 (ip), vehicle: saline
  T/C: 171 % of control
endpoint: mean survival time, dose: 7.0 mg/kg/injection, schedule: Q01DX001 (ip), vehicle: saline
  T/C: 156 % of control
endpoint: mean survival time, dose: 7.0 mg/kg/injection, schedule: Q01DX009 (ip), vehicle: saline
  T/C: 106 % of control
endpoint: mean survival time, dose: 7.0 mg/kg/injection, schedule: Q04DX003 (ip), vehicle: saline
  T/C: 190 % of control
endpoint: mean survival time, dose: 8.0 mg/kg/injection, schedule: Q01DX001 (ip), vehicle: saline
  T/C: 155 % of control and 156 % of control
endpoint: mean survival time, dose: 8.0 mg/kg/injection, schedule: Q01DX009 (ip), vehicle: saline
  T/C: 96 % of control and 97 % of control
endpoint: mean survival time, dose: 8.0 mg/kg/injection, schedule: Q01DX009 (sc), vehicle: saline
  T/C: 105 % of control
endpoint: mean survival time, dose: 8.0 mg/kg/injection, schedule: Q04DX003 (ip), vehicle: saline
  T/C: 189 % of control and 446 % of control
endpoint: mean survival time, dose: 8.0 mg/kg/injection, schedule: Q08DX002 (ip), vehicle: saline
  T/C: 184 % of control
endpoint: mean survival time, dose: 10.0 mg/kg/injection, schedule: Q04DX003 (ip), vehicle: saline
  T/C: 288 % of control
endpoint: mean survival time, dose: 10.6 mg/kg/injection, schedule: Q01DX009 (ip), vehicle: saline
  T/C: 100 % of control
endpoint: mean survival time, dose: 10.6 mg/kg/injection, schedule: Q04DX003 (ip), vehicle: saline
  T/C: 243 % of control
endpoint: mean survival time, dose: 16.0 mg/kg/injection, schedule: Q01DX001 (ip), vehicle: saline
  T/C: 175 % of control
endpoint: mean survival time, dose: 16.0 mg/kg/injection, schedule: Q01DX001 (sc), vehicle: saline
  T/C: 174 % of control
endpoint: mean survival time, dose: 16.0 mg/kg/injection, schedule: Q04DX003 (ip), vehicle: saline
  T/C: 116 % of control
endpoint: mean survival time, dose: 16.0 mg/kg/injection, schedule: Q08DX002 (ip), vehicle: saline
  T/C: 162 % of control
endpoint: mean survival time, dose: 20.0 mg/kg/injection, schedule: Q01DX001 (ip), vehicle: saline
  T/C: 92 % of control
endpoint: median survival time, dose: 2.0 mg/kg/injection, schedule: Q01DX001 (ip), vehicle: saline
  T/C: 119 % of control and 104 % of control
endpoint: median survival time, dose: 4.0 mg/kg/injection, schedule: Q01DX001 (ip), vehicle: saline
  T/C: 117 % of control
endpoint: median survival time, dose: 4.0 mg/kg/injection, schedule: Q03DX003 (ip), vehicle: saline
  T/C: 175 % of control and 222 % of control
endpoint: median survival time, dose: 6.0 mg/kg/injection, schedule: Q03DX003 (ip), vehicle: saline
  T/C: 189 % of control and 266 % of control
endpoint: median survival time, dose: 8.0 mg/kg/injection, schedule: Q03DX003 (ip), vehicle: saline
  T/C: 206 % of control and 253 % of control
endpoint: median survival time, dose: 12.0 mg/kg/injection, schedule: Q03DX003 (ip), vehicle: saline
  T/C: 229 % of control
endpoint: median survival time, dose: 16.0 mg/kg/injection, schedule: Q01DX001 (ip), vehicle: saline
  T/C: 168 % of control and 182 % of control
endpoint: median survival time, dose: 32.0 mg/kg/injection, schedule: Q01DX001 (ip), vehicle: saline
  T/C: 113 % of control and 104 % of control
endpoint: median survival time, dose: 64.0 mg/kg/injection, schedule: Q01DX001 (ip), vehicle: saline
  T/C: 117 % of control and 105 % of control

## CCC(=O)NC(=O)C(=O)NC(=O)CC
endpoint: mean survival time, dose: 25.0 mg/kg/injection, schedule: Q04DX002 (ip), vehicle: saline with Tween-80
  T/C: 102 % of control
endpoint: mean survival time, dose: 50.0 mg/kg/injection, schedule: Q04DX002 (ip), vehicle: saline with Tween-80
  T/C: 95 % of control
[3]
  T/C: 91 % of control
[4]
  T/C: 109 % of control

## O=CN(SSN(C=O)C1CCCCC1)C1CCCCC1
[1]
  T/C: 95 % of control and 103 % of control
[2]
  T/C: 100 % of control and 108 % of control
endpoint: mean survival time, dose: 50.0 mg/kg/injection, schedule: Q01DX009 (ip), vehicle: saline with Tween-80
  T/C: 94 % of control and 105 % of control
endpoint: mean survival time, dose: 100.0 mg/kg/injection, schedule: Q01DX009 (ip), vehicle: saline with Tween-80
  T/C: 94 % of control and 98 % of control
endpoint: mean survival time, dose: 200.0 mg/kg/injection, schedule: Q01DX009 (ip), vehicle: saline with Tween-80
  T/C: 94 % of control and 103 % of control
endpoint: mean survival time, dose: 400.0 mg/kg/injection, schedule: Q01DX009 (ip), vehicle: saline with Tween-80
  T/C: 93 % of control and 102 % of control

## Cc1cc(O)c2c(c1)C(=O)c1cccc(O)c1C2=O
endpoint: mean survival time, dose: 6.25 mg/kg/injection, schedule: Q01DX001 (ip), vehicle: saline
  T/C: 115 % of control
endpoint: mean survival time, dose: 12.5 mg/kg/injection, schedule: Q01DX001 (ip), vehicle: saline
  T/C: 112 % of control
endpoint: mean survival time, dose: 25.0 mg/kg/injection, schedule: Q01DX001 (ip), vehicle: saline
  T/C: 102 % of control

## CSC(=O)NC(=O)c1ccccc1
endpoint: mean survival time, dose: 100.0 mg/kg/injection, schedule: Q04DX003 (ip), vehicle: saline with Tween-80
  T/C: 100 % of control
endpoint: mean survival time, dose: 200.0 mg/kg/injection, schedule: Q04DX003 (ip), vehicle: saline with Tween-80
  T/C: 103 % of control
endpoint: mean survival time, dose: 400.0 mg/kg/injection, schedule: Q04DX003 (ip), vehicle: saline with Tween-80
  T/C: 105 % of control

## [CH3][Sn]([CH3])([Cl])[S]CCN
endpoint: median survival time, dose: 3.12 mg/kg/injection, schedule: Q01DX009 (ip), vehicle: saline
  T/C: 107 % of control
endpoint: median survival time, dose: 6.25 mg/kg/injection, schedule: Q01DX009 (ip), vehicle: saline
  T/C: 101 % of control
endpoint: median survival time, dose: 12.5 mg/kg/injection, schedule: Q01DX009 (ip), vehicle: saline
  T/C: 109 % of control
endpoint: median survival time, dose: 25.0 mg/kg/injection, schedule: Q01DX009 (ip), vehicle: saline
  T/C: 111 % of control
endpoint: median survival time, dose: 50.0 mg/kg/injection, schedule: Q01DX009 (ip), vehicle: saline
  T/C: 114 % of control

Reference: PubChem BioAssay AID256 (DTP/NCI, 2004)
